This note sets out measurements from patent publication US20220289715A1, “PESTICIDALLY ACTIVE PYRAZINE-AMIDE COMPOUNDS” (priority 2019, published 2022).

Where only a bound is given, the exact number is not on record here.

Series [1] relates to Plutella xylostella (Diamondback Moth). In words: Example B9: Plutella xylostella, artificial diet, 96-well. Format: in vivo. To be noted: 216 h, application rate of 500 ppm, eggs/L1 larvae, 9 days after infestation. The method, then: Example B9: Plutella xylostella (Diamondback Moth)
96-well microtiter plates containing artificial diet were treated with aqueous test solutions, prepared from 10,000 ppm DMSO stock solutions, by a liquid handling robot. After drying, eggs (˜30 per well) were infested onto a netted lid which was suspended above the diet. The eggs hatch and L1 larvae move down to the diet. The samples were assessed for mortality 9 days after infestation.
The following compounds gave an effect of at least 80% mortality at an application rate of 500 ppm: […]

Series [2] has as its system Myzus persicae (Green Peach Aphid). Nature of the series: Example B10: Myzus persicae, sucrose solution, 96-well. It counts as in vivo. To be noted: 120 h, application rate of 50 ppm, 5 days after infestation. An excerpt: Example B10: Myzus persicae (Green Peach Aphid)
Test compounds prepared from 10,000 ppm DMSO stock solutions were applied by a liquid handling robot into 96-well microtiter plates and mixed with a sucrose solution. Parafilm was stretched over the 96-well microtiter plate and a plastic stencil with 96 holes was placed onto the plate. Aphids were sieved into the wells directly onto the Parafilm. The infested plates were closed with a gel blotting card and a second plastic stencil and then turned upside down. The samples were assessed for mortality 5 days after infestation.

The test system of series [3] is Spodoptera littoralis (Egyptian Cotton Leaf Worm). In words: Example B6: Spodoptera littoralis, spray on cotton leaf discs. Format: in vivo. To be noted: foliar, 72 h, application rate of 200 ppm, L1 larvae, 3 days after infestation, read-out: control in at least one of the three categories (mortality, anti-feedant effect, or growth inhibition). How it is done: Example B6: Spodoptera littoralis (Egyptian Cotton Leaf Worm)
Cotton leaf discs were placed onto agar in 24-well microtiter plates and sprayed with aqueous test solutions prepared from 10,000 ppm DMSO stock solutions. After drying the leaf discs were infested with five L1 larvae. The samples were assessed for mortality, anti-feeding effect, and growth inhibition in comparison to untreated samples 3 days after infestation. Control of Spodoptera littoralis by a test sample is given when at least one of the categories mortality, anti-feedant effect, and growth inhibition is higher than the untreated sample.

The test system of series [4] is Diabrotica balteata (Corn Root Worm). In words: Example B1: Diabrotica balteata, spray on maize sprouts. It counts as in vivo. To be noted: 96 h, application rate of 200 ppm, L2 larvae, 4 days after infestation, read-out: control in at least one of the two categories (mortality or growth inhibition). The method, then:
Example B1: Diabrotica balteata (Corn Root Worm)
Maize sprouts placed onto an agar layer in 24-well microtiter plates were treated with aqueous test solutions prepared from 10,000 ppm DMSO stock solutions by spraying. After drying, the plates were infested with L2 larvae (6 to 10 per well). The samples were assessed for mortality and growth inhibition in comparison to untreated samples 4 days after infestation.
(§1) The following compounds gave an effect of at least 80% control in at least one of the two categories (mortality or growth inhibition) at an application rate of 200 ppm: […]

The subject of series [5] is Chilo suppressalis (Striped Rice Stemborer). In words: Example B3: Chilo suppressalis, artificial diet. Format: in vivo. To be noted: 144 h, application rate of 200 ppm, L2 larvae, 6 days after infestation, read-out: control in at least one of the three categories (mortality, anti-feedant effect, or growth inhibition). How it is done:
Example B3: Chilo suppressalis (Striped Rice Stemborer)
24-well microtiter plates with artificial diet were treated with aqueous test solutions prepared from 10,000 ppm DMSO stock solutions by pipetting. After drying, the plates were infested with L2 larvae (6-8 per well). The samples were assessed for mortality, anti-feeding effect, and growth inhibition in comparison to untreated samples 6 days after infestation. Control of Chilo suppressalis by a test sample is given when at least one of the categories mortality, anti-feedant effect, and growth inhibition is higher than the untreated sample.

The test system of series [6] is Plutella xylostella (Diamond Back Moth). In words: Example B4: Plutella xylostella, artificial diet, 24-well. It counts as in vivo. To be noted: 192 h, application rate of 200 ppm, eggs, 8 days after infestation, read-out: control in at least one of the two categories (mortality or growth inhibition). The method, then: Example B4: Plutella xylostella (Diamond Back Moth)
24-well microtiter plates with artificial diet were treated with aqueous test solutions prepared from 10,000 ppm DMSO stock solutions by pipetting. After drying, Plutella eggs were pipetted through a plastic stencil onto a gel blotting paper and the plate was closed with it. The samples were assessed for mortality and growth inhibition in comparison to untreated samples 8 days after infestation.
as §1

Series [7] relates to Euschistus heros (Neotropical Brown Stink Bug). In words: Example B2: Euschistus heros, spray on soybean leaves. It counts as in vivo. To be noted: 120 h, application rate of 200 ppm, N2 nymphs, 5 days after infestation, read-out: control in at least one of the two categories (mortality or growth inhibition). How it is done:
Example B2: Euschistus heros (Neotropical Brown Stink Bug)
Soybean leaves on agar in 24-well microtiter plates were sprayed with aqueous test solutions prepared from 10,000 ppm DMSO stock solutions. After drying the leaves were infested with N2 nymphs. The samples were assessed for mortality and growth inhibition in comparison to untreated samples 5 days after infestation.
as §1

Series [8] concerns Spodoptera littoralis (Egyptian Cotton Leaf Worm). In words: Example B7: Spodoptera littoralis, uptake by lettuce roots from agar. Format: in vivo. To be noted: 144 h, test rate of 12.5 ppm, absorbed by lettuce roots, eggs, 6 days after infestation, read-out: control in at least one of the three categories (mortality, anti-feeding, or growth inhibition). An excerpt: Example B7: Spodoptera littoralis (Egyptian Cotton Leaf Worm)
Test compounds were applied by pipette from 10,000 ppm DMSO stock solutions into 24-well plates and mixed with agar. Lettuce seeds were placed onto the agar and the multi well plate was closed by another plate which contained also agar. After 7 days the compound was absorbed by the roots and the lettuce grew into the lid plate. The lettuce leaves were then cut off into the lid plate. Spodoptera eggs were pipetted through a plastic stencil onto a humid gel blotting paper and the lid plate was closed with it. The samples were assessed for mortality, anti-feedant effect and growth inhibition in comparison to untreated samples 6 days after infestation.
The following compounds gave an effect of at least 80% control in at least one of the three categories (mortality, anti-feeding, or growth inhibition) at a test rate of 12.5 ppm: […]

With `CC(NC(=O)c1cc(Br)cc(C(F)(F)F)c1)c1nccnc1-n1nccn1` (stereo not shown) [Compound P2, 3-bromo-N-[1-[3-(triazol-2-yl)pyrazin-2-yl]ethyl]-5-(trifluoromethyl)benzamide], the mortality at 500 ppm in [1] is at least 80%. For the same compound, in series [2], the mortality at 50 ppm was at least 80%. Further, the percent control (mortality, anti-feedant effect or growth inhibition) at 200 ppm in [3] and in [5] was at least 80% each time. For the same compound, the percent control (mortality or growth inhibition) at 200 ppm in series [4], in series [6] and in series [7] was at least 80% in each case. Moreover, the percent control (mortality, anti-feeding or growth inhibition) at 12.5 ppm in series [8] is at least 80%.
`CC(NC(=O)c1cc(Cl)cc(C(F)(F)F)c1)c1nccnc1-n1nccn1` (stereo not shown) [Compound P4, 3-chloro-N-[1-[3-(triazol-2-yl)pyrazin-2-yl]ethyl]-5-(trifluoromethyl)benzamide] had a mortality at 500 ppm in series [1] of at least 80%. This compound also came in with a mortality at 50 ppm in series [2] of at least 80%. For the same compound, the percent control (mortality, anti-feedant effect or growth inhibition) at 200 ppm in series [3] and in series [5] was at least 80% in each case. Also, the percent control (mortality or growth inhibition) at 200 ppm in series [4], in series [6] and in [7] was at least 80% each time. Besides, in [8], the percent control (mortality, anti-feeding or growth inhibition) at 12.5 ppm is at least 80%.
Regarding `CC(NC(=O)c1cc(OC(F)(F)F)cc(C(F)(F)F)c1)c1nccnc1-n1nccn1` (stereo not shown) [Compound P5, N-[1-[3-(triazol-2-yl)pyrazin-2-yl]ethyl]-3-(trifluoromethoxy)-5-(tifluoromethyl)benzamide], the mortality at 500 ppm in series [1] is at least 80%. In addition, the percent control (mortality, anti-feedant effect or growth inhibition) at 200 ppm in series [3] and in series [5] was at least 80% each time. Besides, the percent control (mortality or growth inhibition) at 200 ppm in series [4] and in [6] was at least 80% in each case. In addition, the percent control (mortality, anti-feeding or growth inhibition) at 12.5 ppm in series [8] is at least 80%.
In the case of `CC(NC(=O)c1cc(OC(F)F)cc(C(F)(F)F)c1)c1nccnc1-n1nccn1` (stereo not shown) [Compound P10, 3-(difluoromethoxy)-N-[1-[3-(triazol-2-yl)pyrazin-2-yl]ethyl]-5-(trifluoromethyl)benzamide], the mortality at 500 ppm in series [1] was at least 80%. In series [2], the mortality at 50 ppm is at least 80%. Also, the percent control (mortality, anti-feedant effect or growth inhibition) at 200 ppm in [3] and in [5] was at least 80% throughout. Further, the percent control (mortality or growth inhibition) at 200 ppm in series [4] and in series [6] was at least 80% each time. Also, the percent control (mortality, anti-feeding or growth inhibition) at 12.5 ppm in series [8] was at least 80%.
For `CC(NC(=O)c1cc(Cl)cc(Cl)c1)c1nccnc1-n1nccn1` (stereo not shown) [Compound P20, 3,5-dichloro-N-[1-[3-(triazol-2-yl)pyrazin-2-yl]ethyl]benzamide], the percent control (mortality, anti-feedant effect or growth inhibition) at 200 ppm in series [3] and in series [5] was at least 80% in each case. Besides, the percent control (mortality or growth inhibition) at 200 ppm in [4], in series [6] and in [7] was at least 80% each time.
In turn, `CCOc1cc(C(=O)NC(C)c2nccnc2-n2nccn2)cc(Cl)n1` (stereo not shown) [Compound P21, 2-chloro-6-ethoxy-N-[1-[3-(triazol-2-yl)pyrazin-2-yl]ethyl]pyridine-4-carboxamide] yielded a melting point of 129 to 130 °C.
As for `COc1cc(OC)cc(C(=O)NC(C)c2nccnc2-n2nccn2)c1` (stereo not shown) [Compound P23, 3,5-dimethoxy-N-[1-[3-(triazol-2-yl)pyrazin-2-yl]ethyl]benzamide], the mortality at 50 ppm in [2] was at least 80%. Moreover, in [7], the percent control (mortality or growth inhibition) at 200 ppm was at least 80%.
On to `COc1cc(C)cc(C(=O)NC(C)c2nccnc2-n2nccn2)c1` (stereo not shown) [Compound P27, 3-methoxy-5-methyl-N-[1-[3-(triazol-2-yl)pyrazin-2-yl]ethyl]benzamide], for which the melting point was 128 to 129 °C.
Consider `CC(NC(=O)c1cc(Cl)nc(Cl)c1)c1nccnc1-n1nccn1` (stereo not shown) [Compound P29, 2,6-dichloro-N-[1-[3-(triazol-2-yl)pyrazin-2-yl]ethyl]pyridine-4-carboxamide], for which the mortality at 500 ppm in [1] is at least 80%. In series [2], this compound had a mortality at 50 ppm of at least 80%. In addition, the percent control (mortality, anti-feedant effect or growth inhibition) at 200 ppm in series [3] and in series [5] was at least 80% throughout. The percent control (mortality or growth inhibition) at 200 ppm in series [4] and in [6] was at least 80% in each case. Also, the percent control (mortality, anti-feeding or growth inhibition) at 12.5 ppm in series [8] was at least 80%.
The compound `CCc1cc(C(=O)NC(C)c2nccnc2-n2nccn2)cc(Cl)n1` (stereo not shown) [Compound P31, 2-chloro-6-ethyl-N-[1-[3-(triazol-2-yl)pyrazin-2-yl]ethyl]pyridine-4-carboxamide] came in with a melting point of 126 to 129 °C.
Still for that read-out and setting: next, `CCCc1cc(C(=O)NC(C)c2nccnc2-n2nccn2)cc(Cl)n1` (stereo not shown) [Compound P34, 2-chloro-6-propyl-N-[1-[3-(triazol-2-yl)pyrazin-2-yl]ethyl]pyridine-4-carboxamide]: 142 to 145 °C; `Cc1cc(F)cc(C(=O)NC(C)c2nccnc2-n2nccn2)c1` (stereo not shown) [Compound P37, 3-fluoro-5-methyl-N-[1-[3-(triazol-2-yl)pyrazin-2-yl]ethyl]benzamide]: 154 to 155 °C.
Same read-out and setting: next, `Cc1cnc(C(C)NC(=O)c2cc(C(F)(F)F)cc(C(F)(F)F)c2)c(-n2ccnn2)n1` (stereo not shown) [Compound P43, N-[1-[5-methyl-3-(triazol-1-yl)pyrazin-2-yl]ethyl]-3,5-bis(trifluoromethyl)benzamide]: 167 to 171 °C.
With `CC(NC(=O)c1cc(C(F)(F)F)cc(C(F)(F)F)c1)c1nccnc1-n1nccn1` (stereo not shown) [Compound P49, N-[1-[3-(triazol-2-yl)pyrazin-2-yl]ethyl]-3,5-bis(trifluoromethyl)benzamide], the percent control (mortality, anti-feedant effect or growth inhibition) at 200 ppm in series [3] and in series [5] was at least 80% throughout. Moreover, the percent control (mortality or growth inhibition) at 200 ppm in series [4], in [6] and in series [7] was at least 80% in each case. In addition, the percent control (mortality, anti-feeding or growth inhibition) at 12.5 ppm in series [8] is at least 80%.
